Data from US8889704B2 (Array BioPharma Inc., priority 2011, dated 2014).
Counter-ions that a name gives are not always drawn.

Experiments:
Assay type in all cases: biochemical
[1] = biological target: T1, GST-tagged recombinant full-length human Pim-2 (Homo sapiens, UniProt Q9P1W9); assay: PIM-2 Assay (as Example A); conditions: averaged IC50; 4 μM ATP, 1.0 μM PIM2tide, 1.5 nM Pim-2
T1 construct: GST-tagged recombinant full-length human Pim-2; GST
Method: (§1) The assay for the determination of PIM-1 activity is based on the incorporation of [^33P]PO4 from [γ-^33P]ATP into PIM2tide substrate and capture of the radiolabeled peptide onto a Whatman P81 (phosphocellulose) filter plate. The amount of radiolabeled product is then measured by liquid scintillation counting. The final buffer conditions were as follows: 20 mM K^+MOPS, pH 7.4, 10 mM MgCl2, 0.005% Tween-20, 1 mM DTT. Assay mixtures contained 35 μM [γ-^33P]ATP (20 μCi/mL), 7.5 μM PIM2tide and 0.25 nM PIM-1 in a total volume of 50 μL. Incubations were carried out for 60 min at 22° C. and quenched with 75 μL of 200 mM H3PO4, filtered through a Whatman P81 plate and washed (1×200 μL and 5×100 μL) with 200 mM H3PO4. Fifty μL of liquid scintillation cocktail were then added per well, and the plate was counted for 30 s/well using a TopCount NXT.
(§2) Compounds were prepared at 50× the final concentration in DMSO by conducting 3-fold serial dilutions from a 500-μM intermediate dilution to give a 10-point dosing curve having a high dose of 10 μM. One-μL aliquots of these were then transferred to the assay mixtures above to give a final concentration of DMSO of 2%. A standard or reference compound was typically included on each assay plate to validate that plate. For each plate, percent of control (POC) values were calculated for each well. IC50 values were estimated from the POC values using a standard 4-parameter logistic model. The IC50 is defined as the concentration of inhibitor at which the POC equals 50 for the fitted curve.
Assay was performed as described in Example A, using 4 μM [γ-^33P]ATP (20 μCi/mL), 1.0 μM PIM2tide and 1.5 nM GST-tagged recombinant full-length human Pim-2 in place of PIM-1.

recombinant rat PIM-3 = recombinant rat PIM-3 (Rattus norvegicus, UniProt O70444); assay: PIM-3 Assay (as Example A); conditions: averaged IC50; 30 μM ATP, 3.75 μM PIM2tide, 0.5 nM PIM-3
Method: as §1, §2
Assay was performed as described in Example A, using 30 μM [γ-^33P]ATP (20 μCi/mL), 3.75 μM PIM2tide and 0.5 nM recombinant rat PIM-3 in place of PIM-1.

PIM-1 = PIM-1 (Homo sapiens, UniProt P11309); assay: Enzyme PIM-1 Assay ([33P]ATP incorporation into PIM2tide, filter plate); conditions: averaged IC50; 35 μM ATP, 7.5 μM PIM2tide, 0.25 nM PIM-1, 60 min at 22° C.
Method: as §1, §2

Sequence of PIM-1 (P11309 whole entry, species assumed): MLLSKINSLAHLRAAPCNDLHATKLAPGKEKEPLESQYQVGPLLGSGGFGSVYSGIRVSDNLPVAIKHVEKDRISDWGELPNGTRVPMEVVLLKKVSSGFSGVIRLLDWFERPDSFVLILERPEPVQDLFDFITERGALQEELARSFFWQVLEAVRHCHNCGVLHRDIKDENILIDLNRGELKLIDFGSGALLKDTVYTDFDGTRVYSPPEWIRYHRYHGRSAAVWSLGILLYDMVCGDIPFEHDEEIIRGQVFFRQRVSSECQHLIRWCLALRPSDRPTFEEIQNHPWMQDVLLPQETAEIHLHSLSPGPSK
T1 sequence (Q9P1W9 whole entry): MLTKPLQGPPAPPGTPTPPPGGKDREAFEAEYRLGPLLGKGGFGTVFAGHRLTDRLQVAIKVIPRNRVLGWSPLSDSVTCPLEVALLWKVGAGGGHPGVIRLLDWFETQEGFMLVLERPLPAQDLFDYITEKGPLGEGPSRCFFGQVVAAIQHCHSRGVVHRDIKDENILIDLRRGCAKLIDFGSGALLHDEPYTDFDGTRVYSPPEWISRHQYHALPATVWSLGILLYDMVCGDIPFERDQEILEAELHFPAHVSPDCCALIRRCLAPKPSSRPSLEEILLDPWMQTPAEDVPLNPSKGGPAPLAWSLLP

## Cn1cc(-c2ccc3ccc(-c4nnc5ccc(C(N6CC[C@H](N)C6)C(F)(F)F)cn45)nc3c2)cn1 (stereo partly drawn) [Example 4, (3S)-1-(2,2,2-trifluoro-1-(3-(7-(1-methyl-1H-pyrazol-4-yl)quinolin-2-yl)-[1,2,4]triazolo[4,3-a]pyridin-6-yl)ethyl)pyrrolidin-3-amine trihydrochloride]
[1]
  IC50: 451 nM
Recombinant rat PIM-3
  IC50: 12 nM
PIM-1
  IC50: 0.84 nM

## N[C@H]1CCN(C(c2ccc3nnc(-c4ccc5cccc(OCC6CC6)c5n4)n3c2)C(F)(F)F)C1 (stereo partly drawn) [Example 5, (3S)-1-(1-(3-(8-(cyclopropylmethoxy)quinolin-2-yl)-[1,2,4]triazolo[4,3-a]pyridin-6-yl)-2,2,2-trifluoroethyl)pyrrolidin-3-amine dihydrochloride]
[1]
  IC50: 131 nM
Recombinant rat PIM-3
  IC50: 2.6 nM
PIM-1
  IC50: 0.25 nM

## COc1cccc2ccc(-c3nnc4ccc(C(N5CCCC5)C(F)(F)F)cn34)nc12 (stereo not drawn) [Example 6, 8-methoxy-2-(6-(2,2,2-trifluoro-1-(pyrrolidin-1-yl)ethyl)-[1,2,4]triazolo[4,3-a]pyridin-3-yl)quinoline]
[1]
  IC50: > 1000 nM
Recombinant rat PIM-3
  IC50: > 100 nM
PIM-1
  IC50: 11.1 nM

## COc1cccc2ccc(-c3nnc4ccc(C(N5CC[C@H](O)C5)C(F)(F)F)cn34)nc12 (stereo partly drawn) [Example 7, (3S)-1-(2,2,2-trifluoro-1-(3-(8-methoxyquinolin-2-yl)-[1,2,4]triazolo[4,3-a]pyridin-6-yl)ethyl)pyrrolidin-3-ol]
[1]
  IC50: > 1000 nM
Recombinant rat PIM-3
  IC50: 45 nM
PIM-1
  IC50: 3.94 nM

## COc1cccc2ccc(-c3nnc4ccc([C@H](N5CC[C@H](N)C5)C(F)(F)F)cn34)nc12 [Example 8, (S)-1-((S)-2,2,2-trifluoro-1-(3-(8-methoxyquinolin-2-yl)-[1,2,4]triazolo[4,3-a]pyridin-6-yl)ethyl)pyrrolidin-3-amine dihydrochloride]
[1]
  IC50: 151 nM
Recombinant rat PIM-3
  IC50: 2.5 nM
PIM-1
  IC50: 1.31 nM

## COc1cccc2ccc(-c3nnc4ccc([C@@H](N5CC[C@H](N)C5)C(F)(F)F)cn34)nc12 [Example 9, (S)-1-((R)-2,2,2-trifluoro-1-(3-(8-methoxyquinolin-2-yl)-[1,2,4]triazolo[4,3-a]pyridin-6-yl)ethyl)pyrrolidin-3-amine dihydrochloride]
[1]
  IC50: 403 nM
Recombinant rat PIM-3
  IC50: 4.2 nM
PIM-1
  IC50: 0.68 nM

## N[C@@H]1CCN(C(c2ccc3nnc(-c4ccc5cccc(OCC6CC6)c5n4)n3c2)C(F)(F)F)C1 (stereo partly drawn) [Example 16, (3R)-1-(1-(3-(8-(cyclopropylmethoxy)quinolin-2-yl)-[1,2,4]triazolo[4,3-a]pyridin-6-yl)-2,2,2-trifluoroethyl)pyrrolidin-3-amine dihydrochloride]
[1]
  IC50: 140 nM
Recombinant rat PIM-3
  IC50: 6 nM
PIM-1
  IC50: 0.28 nM

## CC(c1ccc2nnc(-c3ccc4cccc(C(C)(C)C)c4n3)n2c1)N1CC[C@H](N)C1 (stereo partly drawn) [Example 17, (3S)-1-(1-(3-(8-tert-butylquinolin-2-yl)-[1,2,4]triazolo[4,3-a]pyridin-6-yl)ethyl)pyrrolidin-3-amine trihydrochloride]
[1]
  IC50: 12.4 nM
Recombinant rat PIM-3
  IC50: 1.2 nM
PIM-1
  IC50: 0.06 nM

## N[C@H]1CCN(C(c2ccc3nnc(-c4ccc5ccc(-c6cccnc6)cc5n4)n3c2)C(F)(F)F)C1 (stereo partly drawn) [Example 18, (3S)-1-(2,2,2-trifluoro-1-(3-(7-(pyridin-3-yl)quinolin-2-yl)-[1,2,4]triazolo[4,3-a]pyridin-6-yl)ethyl)pyrrolidin-3-amine tri-hydrochloride]
[1]
  IC50: 172 nM
Recombinant rat PIM-3
  IC50: 0.5 nM
PIM-1
  IC50: 0.25 nM

## COc1cccc2ccc(-c3nnc4ccc(C(N5C[C@H](O)[C@@H](O)C5)C(F)(F)F)cn34)nc12 (stereo partly drawn) [Example 19, (3S,4S)-1-(2,2,2-trifluoro-1-(3-(8-methoxyquinolin-2-yl)-[1,2,4]triazolo[4,3-a]pyridin-6-yl)ethyl)pyrrolidine-3,4-diol]
[1]
  IC50: > 1000 nM
Recombinant rat PIM-3
  IC50: 25 nM
PIM-1
  IC50: 2.38 nM

## CN[C@H]1CCN(C(c2ccc3nnc(-c4ccc5cccc(OCC6CC6)c5n4)n3c2)C(F)(F)F)C1 (stereo partly drawn) [Example 20, (3S)-1-(1-(3-(8-(Cyclopropylmethoxy)quinolin-2-yl)-[1,2,4]triazolo[4,3-a]pyridin-6-yl)-2,2,2-trifluoroethyl)-N-methylpyrrolidin-3-amine dihydrochloride]
[1]
  IC50: 131 nM
Recombinant rat PIM-3
  IC50: 3.3 nM
PIM-1
  IC50: 0.35 nM

## NC[C@H]1CCN(C(c2ccc3nnc(-c4ccc5cccc(OCC6CC6)c5n4)n3c2)C(F)(F)F)C1 (stereo partly drawn) [Example 21, ((3R)-1-(1-(3-(8-(cyclopropylmethoxy)quinolin-2-yl)-[1,2,4]triazolo[4,3-a]pyridin-6-yl)-2,2,2-trifluoroethyl)pyrrolidin-3-yl)methanamine dihydrochloride]
[1]
  IC50: 427 nM
Recombinant rat PIM-3
  IC50: 46 nM
PIM-1
  IC50: 1.14 nM

## NC[C@@H]1CCN(C(c2ccc3nnc(-c4ccc5cccc(OCC6CC6)c5n4)n3c2)C(F)(F)F)C1 (stereo partly drawn) [Example 24, ((3S)-1-(1-(3-(8-(cyclopropylmethoxy)quinolin-2-yl)-[1,2,4]triazolo[4,3-a]pyridin-6-yl)-2,2,2-trifluoroethyl)pyrrolidin-3-yl)methanamine dihydrochloride]
[1]
  IC50: 935 nM
Recombinant rat PIM-3
  IC50: 76 nM
PIM-1
  IC50: 2.01 nM

## FC(F)(F)C(c1ccc2nnc(-c3ccc4cccc(OCC5CC5)c4n3)n2c1)N1C[C@H]2C[C@@H]1CN2 (stereo partly drawn) [Example 25, 2-(6-(1-((1R,4R)-2,5-diazabicyclo[2.2.1]heptan-2-yl)-2,2,2-trifluoroethyl)-[1,2,4]triazolo[4,3-a]pyridin-3-yl)-8-(cyclopropylmethoxy)quinoline dihydrochloride]
[1]
  IC50: 86 nM
Recombinant rat PIM-3
  IC50: 5.1 nM
PIM-1
  IC50: 0.8 nM

## N[C@@H]1[C@H]2CN(C(c3ccc4nnc(-c5ccc6cccc(OCC7CC7)c6n5)n4c3)C(F)(F)F)C[C@@H]12 (stereo partly drawn) [Example 26, (1R,5S,6S)-3-(1-(3-(8-(cyclopropylmethoxy)quinolin-2-yl)-[1,2,4]triazolo[4,3-a]pyridin-6-yl)-2,2,2-trifluoroethyl)-3-azabicyclo[3.1.0]hexanesan-6-amine dihydrochloride]
[1]
  IC50: 796 nM
Recombinant rat PIM-3
  IC50: > 100 nM
PIM-1
  IC50: 2.12 nM

## CC1(N)CCN(C(c2ccc3nnc(-c4ccc5cccc(OCC6CC6)c5n4)n3c2)C(F)(F)F)C1 (stereo not drawn) [Example 27, 1-(1-(3-(8-(cyclopropylmethoxy)quinolin-2-yl)-[1,2,4]triazolo[4,3-a]pyridin-6-yl)-2,2,2-trifluoroethyl)-3-methylpyrrolidin-3-amine dihydrochloride]
[1]
  IC50: 334 nM
Recombinant rat PIM-3
  IC50: 25 nM
PIM-1
  IC50: 0.8 nM

## CC1(N)CCN(C(c2ccc3nnc(-c4ccc5cccc(O)c5n4)n3c2)C(F)(F)F)C1 (stereo not drawn) [Example 28, 2-(6-(1-(3-amino-3-methylpyrrolidin-1-yl)-2,2,2-trifluoroethyl)-[1,2,4]triazolo[4,3-a]pyridin-3-yl)quinolin-8-ol dihydrochloride]
[1]
  IC50: > 1000 nM
Recombinant rat PIM-3
  IC50: 8.2 nM
PIM-1
  IC50: 1.08 nM

## N[C@H]1CCN(C(c2ccc3nnc(-c4ccc5ccc(C(F)(F)F)cc5n4)n3c2)C(F)(F)F)C1 (stereo partly drawn) [Example 29, (3S)-1-(2,2,2-trifluoro-1-(3-(7-(trifluoromethyl)quinolin-2-yl)-[1,2,4]triazolo[4,3-a]pyridin-6-yl)ethyl)pyrrolidin-3-amine dihydrochloride]
[1]
  IC50: > 1000 nM
Recombinant rat PIM-3
  IC50: 47 nM
PIM-1
  IC50: 5.12 nM

## CC(C)NC(=O)c1ccc2ccc(-c3nnc4ccc(C(N5CC[C@H](N)C5)C(F)(F)F)cn34)nc2c1 (stereo partly drawn) [Example 30, 2-(6-(1-((S)-3-aminopyrrolidin-1-yl)-2,2,2-trifluoroethyl)-[1,2,4]triazolo[4,3-a]pyridin-3-yl)-N-isopropylquinoline-7-carboxamide dihydrochloride]
[1]
  IC50: 63 nM
Recombinant rat PIM-3
  IC50: 0.9 nM
PIM-1
  IC50: 0.32 nM

## CC(C)Oc1cccc2ccc(-c3nnc4ccc([C@@H](N5CC[C@H](N)C5)C(F)(F)F)cn34)nc12 [Example 31, (S)-1-((R)-2,2,2-trifluoro-1-(3-(8-isopropoxyquinolin-2-yl)-[1,2,4]triazolo[4,3-a]pyridin-6-yl)ethyl)pyrrolidin-3-amine dihydrochloride]
[1]
  IC50: 23 nM
Recombinant rat PIM-3
  IC50: 0.4 nM
PIM-1
  IC50: 0.08 nM

## CC(C)N[C@H]1CCN(C(c2ccc3nnc(-c4ccc5cccc(OCC6CC6)c5n4)n3c2)C(F)(F)F)C1 (stereo partly drawn) [Example 32, (3S)-1-(1-(3-(8-(cyclopropylmethoxy)quinolin-2-yl)-[1,2,4]triazolo[4,3-a]pyridin-6-yl)-2,2,2-trifluoroethyl)-N-isopropylpyrrolidin-3-amine dihydrochloride]
[1]
  IC50: 266 nM
Recombinant rat PIM-3
  IC50: 10 nM
PIM-1
  IC50: 0.53 nM
